Laboratory results: patent US12370181B2, “Regimens of estrogen receptor antagonists” (Olema Pharmaceuticals, Inc., priority 2019, dated 2025)

Assays:
[1] = test system: ligand-independent ER mutants; experiment: AP activity in Ishikawa cells transiently transfected with ER variants; type: cell-based, human; conditions: in the absence of E2; 3 days; FIGS. 5A-5F, 8A-8D
Procedure: (§1) The present Example describes studies in which certain estrogen receptor constructs were transfected into Ishikawa cells, which are a human endometrial cancer cell line, endogenous alkaline phosphatase is assayed. 15,000 Ishikawa cells per well were plated into a 96-well plate in […] containing 5% stripped FBS. At the time of plating, cells in each well were transiently transfected with 75-100 ng of an estrogen receptor construct (or empty vector, pSG5) using Lipofectamine LTX (ThermoFisher Scientific). Approximately 4 hours later, cells were treated with indicated amount of anti-estrogen (in the absence of E2), or 500 pM E2 (FIG. 9), and media was diluted to 2.5% stripped FBS. Cells were incubated for 3 days, media removed, and plates frozen at −80° C. […] After 40-80 minutes at 40° C., absorbance was read at 405 nm.

endogenous wild type ER = target: T1, endogenous wild type ER (Homo sapiens, UniProt P03372); experiment: Alkaline phosphatase (AP) activity of endogenous wild type ER in un-transfected Ishikawa cells, agonist and antagonist mode; type: cell-based
T1 construct: AP activity of endogenous wild type ER in un-transfected Ishikawa cells; endogenous in cells; host or cells: Ishikawa cells (un-transfected)
T1 sequence (P03372 1-595): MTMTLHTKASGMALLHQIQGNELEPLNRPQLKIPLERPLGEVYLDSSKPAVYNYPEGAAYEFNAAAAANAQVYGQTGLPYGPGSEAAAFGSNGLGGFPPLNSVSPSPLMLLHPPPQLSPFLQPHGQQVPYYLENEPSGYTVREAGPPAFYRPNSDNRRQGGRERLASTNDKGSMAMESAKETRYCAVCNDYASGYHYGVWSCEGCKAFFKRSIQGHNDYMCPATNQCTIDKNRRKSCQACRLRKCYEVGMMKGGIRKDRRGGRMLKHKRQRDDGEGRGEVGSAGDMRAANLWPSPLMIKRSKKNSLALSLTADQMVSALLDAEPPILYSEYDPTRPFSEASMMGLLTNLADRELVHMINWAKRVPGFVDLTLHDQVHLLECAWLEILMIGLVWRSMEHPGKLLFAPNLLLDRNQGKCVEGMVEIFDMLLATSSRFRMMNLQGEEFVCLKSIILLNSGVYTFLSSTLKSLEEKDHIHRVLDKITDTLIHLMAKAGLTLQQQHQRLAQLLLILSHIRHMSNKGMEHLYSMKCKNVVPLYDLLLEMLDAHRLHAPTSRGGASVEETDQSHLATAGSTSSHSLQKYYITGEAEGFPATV
Procedure: as §1
AP activity of endogenous wild type ER in un-transfected Ishikawa cells was assayed as described above.

[2] = in vivo, po, 300 mg/kg

Row | Structure (SMILES) | Inhibition of activity of ligand-independent ER mutants (AP activity) [1] | Agonist activity (ER activity, AP) (endogenous wild type ER; agonist mode: compound alone, no added estrogen, FIG. 1A) | Antagonist activity (ER activity, AP) (endogenous wild type ER; antagonist mode: in the presence of 500 pM 17β-estradiol (E2), FIG. 1B) | Blood brain barrier penetration [2]
1 | CC/C(=C(/c1ccc(/C=C/C(=O)O)cc1)c1ccc2[nH]ncc2c1)c1ccc(F)cc1Cl [ARN-810, Brilanestrant] | none of Endoxifen, RAD-1901, ARN-810 (GDC-0810) or AZD-9496 can inhibit activity of the ligand-independent ER variants |  |  | 
2 | C[C@@H]1Cc2c([nH]c3ccccc23)[C@@H](c2c(F)cc(/C=C/C(=O)O)cc2F)N1CC(C)(C)F [AZD-9496] | none of Endoxifen, RAD-1901, ARN-810 (GDC-0810) or AZD-9496 can inhibit activity of the ligand-independent ER variants | increases ER activity in the absence of added estrogen | reducing ER activity when estrogen is there | 
3 | C[C@]12CC[C@@H]3c4ccc(O)cc4C[C@@H](CCCCCCCCC[S+]([O-])CCCC(F)(F)C(F)(F)F)[C@H]3[C@@H]1CC[C@@H]2O (stereo partly drawn) [Fulvestrant] |  |  |  | unable to penetrate the blood-brain barrier in analogous quantities
4 | CCNCCc1ccc(CN(CC)c2cc(OC)ccc2[C@@H]2CCc3cc(O)ccc3C2)cc1 [RAD-1901, Elacestrant] | none of Endoxifen, RAD-1901, ARN-810 (GDC-0810) or AZD-9496 can inhibit activity of the ligand-independent ER variants |  |  | 
